{
  "source": "PubChem BioAssay AID2060486",
  "about": "(Molecular Pharmacology Branch, DTP, NCI, 2025)",
  "test_system": "IGROV1 complex spheroids (HUVEC, MSC), viability % test/control",
  "assay": "Anticancer human tumor IGROV1 cell line growth inhibition [GQUAD];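 also: spheroids exposed to compounds for 7 days before readout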;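 as to viability, T/C: 100% = DMSO vehicle control viability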",
  "details": "for pIC50: curve of first compound; for viability, T/C: stronger effect = lower value",
  "method_in_brief": "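Viability of tumor cells grown as complex spheroids with endothelial and stromal cells, exposed to drug combinations. Top concentration at or near clinical Cmax (else 10 microM), diluted in half-log increments.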",
  "note": "pIC50: −log10 of the molar value.",
  "data": [
    {"smiles": "Cc1[nH]c2ccccc2c1CCNCc1ccc(/C=C/C(=O)NO)cc1", "note": "+ CN(C)c1ccc(Nc2c3ccc(NC(=O)CCN4CCCC4)cc3nc3cc(NC(=O)CCN4CCCC4)ccc23)cc1", "values": [
      {"measurement": "pIC50", "setting": "second compound 0.0316 µM", "value": 7.72},
      {"measurement": "pIC50", "setting": "second compound 0.1 µM", "value": 7.99},
      {"measurement": "pIC50", "setting": "second compound 0.316 µM", "value": 7.64},
      {"measurement": "pIC50", "setting": "second compound 1 µM", "value": 7.83},
      {"measurement": "pIC50", "setting": "second compound 3.16 µM", "value": 7.91},
      {"measurement": "pIC50", "setting": "second compound 10 µM", "value": 7.93},
      {"measurement": "viability, T/C", "setting": "second compound 0.0316 µM, first compound 0.000999 µM", "value": 104, "unit": "%"},
      {"measurement": "viability, T/C", "setting": "second compound 0.0316 µM, first compound 0.00316 µM", "value": 84.2, "unit": "%"},
      {"measurement": "viability, T/C", "setting": "second compound 0.0316 µM, first compound 0.00999 µM", "value": 79.3, "unit": "%"},
      {"measurement": "viability, T/C", "setting": "second compound 0.0316 µM, first compound 0.0316 µM", "value": 28.5, "unit": "%"},
      {"measurement": "viability, T/C", "setting": "second compound 0.0316 µM, first compound 0.0999 µM", "value": 4.27, "unit": "%"},
      {"measurement": "viability, T/C", "setting": "second compound 0.0316 µM, first compound 0.316 µM", "value": 0.32, "unit": "%"},
      {"measurement": "viability, T/C", "setting": "second compound 0.1 µM, first compound 0.000999 µM", "value": 84.3, "unit": "%"},
      {"measurement": "viability, T/C", "setting": "second compound 0.1 µM, first compound 0.00316 µM", "value": 67.5, "unit": "%"},
      {"measurement": "viability, T/C", "setting": "second compound 0.1 µM, first compound 0.00999 µM", "value": 51.4, "unit": "%"},
      {"measurement": "viability, T/C", "setting": "second compound 0.1 µM, first compound 0.0316 µM", "value": 30.1, "unit": "%"},
      {"measurement": "viability, T/C", "setting": "second compound 0.1 µM, first compound 0.0999 µM", "value": 3.89, "unit": "%"},
      {"measurement": "viability, T/C", "setting": "second compound 0.1 µM, first compound 0.316 µM", "value": 0.33, "unit": "%"},
      {"measurement": "viability, T/C", "setting": "second compound 0.316 µM, first compound 0.000999 µM", "value": 77.1, "unit": "%"},
      {"measurement": "viability, T/C", "setting": "second compound 0.316 µM, first compound 0.00316 µM", "value": 77.7, "unit": "%"},
      {"measurement": "viability, T/C", "setting": "second compound 0.316 µM, first compound 0.00999 µM", "value": 70.1, "unit": "%"},
      {"measurement": "viability, T/C", "setting": "second compound 0.316 µM, first compound 0.0316 µM", "value": 42.1, "unit": "%"},
      {"measurement": "viability, T/C", "setting": "second compound 0.316 µM, first compound 0.0999 µM", "value": 4.59, "unit": "%"},
      {"measurement": "viability, T/C", "setting": "second compound 0.316 µM, first compound 0.316 µM", "value": 0.38, "unit": "%"},
      {"measurement": "viability, T/C", "setting": "second compound 1 µM, first compound 0.000999 µM", "value": 65.2, "unit": "%"},
      {"measurement": "viability, T/C", "setting": "second compound 1 µM, first compound 0.00316 µM", "value": 89, "unit": "%"},
      {"measurement": "viability, T/C", "setting": "second compound 1 µM, first compound 0.00999 µM", "value": 54.2, "unit": "%"},
      {"measurement": "viability, T/C", "setting": "second compound 1 µM, first compound 0.0316 µM", "value": 31.2, "unit": "%"},
      {"measurement": "viability, T/C", "setting": "second compound 1 µM, first compound 0.0999 µM", "value": 5.62, "unit": "%"},
      {"measurement": "viability, T/C", "setting": "second compound 1 µM, first compound 0.316 µM", "value": 0.2, "unit": "%"},
      {"measurement": "viability, T/C", "setting": "second compound 3.16 µM, first compound 0.000999 µM", "value": 64, "unit": "%"},
      {"measurement": "viability, T/C", "setting": "second compound 3.16 µM, first compound 0.00316 µM", "value": 82.1, "unit": "%"},
      {"measurement": "viability, T/C", "setting": "second compound 3.16 µM, first compound 0.00999 µM", "value": 48.8, "unit": "%"},
      {"measurement": "viability, T/C", "setting": "second compound 3.16 µM, first compound 0.0316 µM", "value": 29.6, "unit": "%"},
      {"measurement": "viability, T/C", "setting": "second compound 3.16 µM, first compound 0.0999 µM", "value": 4.53, "unit": "%"},
      {"measurement": "viability, T/C", "setting": "second compound 3.16 µM, first compound 0.316 µM", "value": 0.37, "unit": "%"},
      {"measurement": "viability, T/C", "setting": "second compound 10 µM, first compound 0.000999 µM", "value": 53, "unit": "%"},
      {"measurement": "viability, T/C", "setting": "second compound 10 µM, first compound 0.00316 µM", "value": 55.4, "unit": "%"},
      {"measurement": "viability, T/C", "setting": "second compound 10 µM, first compound 0.00999 µM", "value": 56.6, "unit": "%"},
      {"measurement": "viability, T/C", "setting": "second compound 10 µM, first compound 0.0316 µM", "value": 18.1, "unit": "%"},
      {"measurement": "viability, T/C", "setting": "second compound 10 µM, first compound 0.0999 µM", "value": 4.24, "unit": "%"},
      {"measurement": "viability, T/C", "setting": "second compound 10 µM, first compound 0.316 µM", "value": 0.47, "unit": "%"}
    ]}
  ]
}
